# Reference: US11919858B2, “Aminonapthoquinone compounds and pharmaceutical composition for blocking ubiquitination-proteasome system in diseases” (Calgent Biotechnology Co., Ltd., priority 2015, dated 2024)
# Like-named read-outs stand apart in the source and are kept apart here.
# Columns and labels:
# [1] = system: HCT116 human colorectal adenocarcinoma
# Description: MPT0L056 was used to evaluate for activity against the HCT116 human colorectal adenocarcinoma.
# However, MPT0E028 was administered orally (p.o.) in 1.0% CMC and 0.5% Tween 80 and given dose at 25 mg/kg daily to end schedule.
# Each animal was euthanized when the tumors reached the predetermined endpoint size of 1,000 mm^3. The time to endpoint (TTE) for each mouse was calculated by the following equation:
# [formula] where TTE is expressed in days, endpoint volume is in mm^3, b is the intercept, and m is the slope of the line obtained by linear regression of a log-transformed tumor growth data set. The data set is comprised of the first observation that exceeded the study endpoint volume and the three consecutive observations that immediately preceded the attainment of the endpoint volume. The calculated TTE is usually less than the day on which an animal is euthanized for tumor size. […] An animal classified as having died from treatment-related (TR) causes or non-treatment-related metastasis (NTRm) causes was assigned a TTE value equal to the day of death. An animal classified as having died from non-treatment-related (NTR) causes was excluded from TTE calculations.
# Treatment efficacy was determined from tumor growth delay (TGD), which is defined as the increase in the median TTE for a treatment group compared to the control group: TGD=T−C, expressed in days, or as a percentage of the median TTE of the control group:
# [formula] where: • T=median TTE for a treatment group, • C=median TTE for control Group 1.
# Treatment efficacy was also determined from the tumor volumes of animals remaining in the study on the last day, and from the number of regression responses. The MTV(n) is defined as the median tumor volume on D59 in the number of animals remaining, n, whose tumors have not attained the endpoint volume.
# Treatment may cause a partial regression (PR) or a complete regression (CR) of the tumor in an animal. […] An animal with a CR at the termination of a study is additionally classified as a tumor-free survivor (TFS).
# Animals were weighed daily for the first five days, then twice weekly until the completion of the study. The mice were examined frequently for overt signs of any adverse, drug-related side effects. Acceptable toxicity for the MTD of cancer drugs is defined as a group mean BW loss of 20% or less during the test, and not more than one TR death among ten animals. A death is classified as TR if there is evidence of treatment side effects from clinical signs and/or necropsy or from unknown causes during dosing period or within 10 days of the last dose. A death is classified as NTR if there is no evidence that the death was related to treatment side effects.
# The logrank test was used to determine the statistical significance of the difference between the TTE values of two groups, except any NTR deaths. Statistical and graphical analyses were performed with Prism 3.03 (GraphPad) for Windows. The two-tailed statistical analyses were conducted at P=0.05. Kaplan-Meier plots show the percentage of animals remaining in the study versus time. The Kaplan-Meier plots use the same data set as the log rank test. The tumor growth curves show the group median tumor volume, on a log scale as a function of time.
# [2] = system: human MDA-MB-231 breast adenocarcinoma; test: Human MDA-MB-231 breast cancer xenograft in female nude mice (TMU-MDA-MB-231-e0002); settings: bortezomib 1 mg/kg QWK to end
# [3] = system: human A2780 ovarian adenocarcinoma; test: Human A2780 ovarian cancer xenograft in female nude mice (TMU-A2780-e0001); assay type: in vivo
# Hep 3B = test: Growth inhibition assay; assay type: cell-based; settings: Homo sapiens, Hep3B; read-out: Hep3B GI50 (μM) Mean ± S.E.
# Description: (§1) Cells were seeded in 96-well plastic plates and exposed to MPT0L056 for 48 hours. Cell viability was assessed using the 3-(4,5-dimethylthiazol-2-yl)-2,5-diphenyltetrazolium bromide assay. Growth inhibition was expressed as the percentage of surviving cells in drug-treated versus DMSO-treated control cells.
# (§2) The compounds of the invention were subjected to growth inhibition assay.
# HCT-116 = test: Growth inhibition assay; assay type: cell-based; settings: Homo sapiens, HCT-116; read-out: HCT-116 GI50 (μM) Mean ± S.E.
# Description: as §1, §2
# MDA-MB-231 = test: Growth inhibition assay; assay type: cell-based; settings: Homo sapiens, MDA-MB-231; read-out: MDA-MB-231 GI50 (μM) Mean ± S.E.
# Description: as §1, §2
# HL-60 = test: Growth inhibition assay; assay type: cell-based; settings: Homo sapiens, HL-60; read-out: HL-60 IC50 (μM) Mean ± S.E.
# Description: as §1, §2
# [4] = system: human RPMI8226 multiple myeloma; test: Human RPMI8226 multiple myeloma xenograft in female nude mice (TMU-RPMI8226-e0001); assay type: in vivo; settings: SAHA 100 mg/kg once every day
# Description: The 42-day study utilized five groups of mice (n=6) bearing established human PRMI8226 multiple myeloma with mean volumes of ˜85 mm^3 on D1. […] (FIG. 3).
# [5] = Group 3: bortezomib 1 mg/kg iv qwk to endpoint
# [6] = Group 3: bortezomib 1 mg/kg iv qwk to endpoint, listed as Bortezomib
# [7] = Group 6: bortezomib 1 mg/kg iv qwk + MPT0E028 25 mg/kg po qd to endpoint
# [8] = Group 6: bortezomib 1 mg/kg iv qwk + MPT0E028 25 mg/kg po qd to endpoint, listed as Bortezomib
smiles,measurement,setting,value
"CC(C)C[C@H](NC(=O)[C@H](Cc1ccccc1)NC(=O)c1cnccn1)B(O)O [bortezomib, reference compound]",Median survival,[1]; Group 1 vs 3: bortezomib 1 mg/kg,38.95
same,Median survival,[1]; Group 1 vs 6: bortezomib + MPT0E028 1/25 mg/kg,38.4
same,% TGD,[1]; [5],71%
same,MTV (n) Day 59,[1]; [5],683 mm^3
same,Median TTE,[1]; [5],38.9 days
same,No. of CR,[1]; [5],2
same,No. of LTTFS,[1]; [5],0
same,No. of NTR,[1]; [5],0
same,No. of PR,[1]; [5],1
same,No. of TR,[1]; [5],0
same,T-C,[1]; [5],16.2 days
same,antitumor activity (logrank analysis),[1]; [5],produced significant antitumor activity
same,Logrank Significance,"[1]; Group 3: bortezomib 1 mg/kg iv qwk to endpoint, compared to Group 1",* (* = P < 0.05)
same,% TGD,[1]; [6],71%
same,No. of CR,[1]; [6],two
same,No. of PR,[1]; [6],one
same,% TGD,[1]; [7],69%
same,MTV (n) Day 59,[1]; [7],0 mm^3
same,Median TTE,[1]; [7],38.4 days
same,No. of CR,[1]; [7],1
same,No. of LTTFS,[1]; [7],1
same,No. of NTR,[1]; [7],4
same,No. of PR,[1]; [7],1
same,No. of TR,[1]; [7],0
same,T-C,[1]; [7],15.7 days
same,% TGD,[1]; [8],69%
same,No. of CR,[1]; [8],one
same,No. of LTTFS,[1]; [8],one
same,No. of PR,[1]; [8],one
same,antitumor activity,[2],did not show antitumor activity
same,antitumor activity,[3]; bortezomib 1 mg/kg QWK to end,showed antitumor activity
"N.N.[Cl][Pt][Cl] [cisplatin, reference compound]",antitumor activity,[3]; cisplatin 5 mg/kg QWK to end,showed antitumor activity
"O=C(Nc1cnc2[nH]ccc2c1)c1ccc(CNC2=C(Cl)C(=O)c3ccccc3C2=O)cc1 [MPT0L119, 4-((3-chloro-1,4-dioxo-1,4-dihydronaphthalen-2-ylamino)methyl)-N-(1H-pyrrolo[2,3-b]pyridin-5-yl)benzamide]",GI50,Hep 3B,10 to 30 µM
same,GI50,HCT-116,10 to 30 µM
same,GI50,MDA-MB-231,10 to 30 µM
same,IC50,HL-60,10 to 30 µM
"O=C(Nc1nc2ccccc2[nH]1)c1ccc(CNC2=C(Cl)C(=O)c3ccccc3C2=O)cc1 [MPT0L086, N-(1H-benzo[d]imidazol-2-yl)-4-(((3-chloro-1,4-dioxo-1,4-dihydronaphthalen-2-yl)amino)methyl)benzamide]",GI50,Hep 3B,10 to 30 µM
same,GI50,HCT-116,10 to 30 µM
same,GI50,MDA-MB-231,8.88 ± 1.04 µM
same,IC50,HL-60,10 to 30 µM
"O=C(Nc1cnc2[nH]ncc2c1)c1ccc(CNC2=C(Cl)C(=O)c3ccccc3C2=O)cc1 [MPT0L120, 4-((3-chloro-1,4-dioxo-1,4-dihydronaphthalen-2-ylamino)methyl)-N-(1H-pyrazolo[3,4-b]pyridin-5-yl)benzamide]",GI50,Hep 3B,10 to 30 µM
same,GI50,HCT-116,10 to 30 µM
same,GI50,MDA-MB-231,10 to 30 µM
same,IC50,HL-60,7.31 ± 1.94 µM
"O=C(CCCCCCC(=O)Nc1ccccc1)NO [SAHA, reference compound]",antitumor activity,[4],also showed antitumor activity
same,mice with complete regression,[4],one of six
"O=C(Nc1cccc2[nH]ccc12)c1ccc(CNC2=C(Cl)C(=O)c3ccccc3C2=O)cc1 [MPT0L116, 4-((3-chloro-1,4-dioxo-1,4-dihydronaphthalen-2-ylamino)methyl)-N-(1H-indol-4-yl)benzamide]",GI50,Hep 3B,10 to 30 µM
same,GI50,HCT-116,10 to 30 µM
same,GI50,MDA-MB-231,10 to 30 µM
same,IC50,HL-60,4.06 ± 1.82 µM
"O=C(Nc1ccc2cn[nH]c2c1)c1ccc(CNC2=C(Cl)C(=O)c3ccccc3C2=O)cc1 [MPT0L118, 4-((3-chloro-1,4-dioxo-1,4-dihydronaphthalen-2-ylamino)methyl)-N-(1H-indazol-6-yl)benzamide]",GI50,Hep 3B,10 to 30 µM
same,GI50,HCT-116,10 to 30 µM
same,GI50,MDA-MB-231,10 to 30 µM
same,IC50,HL-60,7.39 ± 3.49 µM
"O=C(Nc1ccc2[nH]ncc2c1)c1ccc(CNC2=C(Cl)C(=O)c3ccccc3C2=O)cc1 [MPT0L097, 4-((3-chloro-1,4-dioxo-1,4-dihydronaphthalen-2-ylamino)methyl)-N-(1H-indazol-5-yl)benzamide]",GI50,Hep 3B,10 to 30 µM
same,GI50,HCT-116,10 to 30 µM
same,GI50,MDA-MB-231,10 to 30 µM
same,IC50,HL-60,10 to 30 µM
"Cc1cc(NC(=O)c2ccc(CNC3=C(Cl)C(=O)c4ccccc4C3=O)cc2)n[nH]1 [MPT0L099, 4-((3-chloro-1,4-dioxo-1,4-dihydronaphthalen-2-ylamino)methyl)-N-(5-methyl-3H-pyrazol-3-yl)benzamide]",GI50,Hep 3B,10 to 30 µM
same,GI50,HCT-116,10 to 30 µM
same,GI50,MDA-MB-231,10 to 30 µM
same,IC50,HL-60,10 to 30 µM
